# Reference: patent US11999964B2, “Synthetic mammalian signaling circuits for robust cell population control” (California Institute of Technology, priority 2020, dated 2024)
# Assays:
# Type in all cases: cell-based, Hamster
# mCherry-AID-Blast R [1] = target: T1, mCherry-AID-Blast R (UniProt P93830+Q7XVM8, DEL133-229); assay: Auxin regulation of mCherry-AID-BlastR fluorescence in Receiver cells; details: Receiver CHO-K1 cells, two days of treatment, Michaelis-Menten fit; read-out: EC50, reduction of mCherry fluorescence
# T1 construct: expressed in transfected cells; 'Receiver' line
# T1 sequence (P93830 65-132 limits assumed, stated change not applied): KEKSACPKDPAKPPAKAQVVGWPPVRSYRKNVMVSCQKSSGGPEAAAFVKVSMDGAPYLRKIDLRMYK
# T1 sequence (Q7XVM8 whole entry, stated change not applied): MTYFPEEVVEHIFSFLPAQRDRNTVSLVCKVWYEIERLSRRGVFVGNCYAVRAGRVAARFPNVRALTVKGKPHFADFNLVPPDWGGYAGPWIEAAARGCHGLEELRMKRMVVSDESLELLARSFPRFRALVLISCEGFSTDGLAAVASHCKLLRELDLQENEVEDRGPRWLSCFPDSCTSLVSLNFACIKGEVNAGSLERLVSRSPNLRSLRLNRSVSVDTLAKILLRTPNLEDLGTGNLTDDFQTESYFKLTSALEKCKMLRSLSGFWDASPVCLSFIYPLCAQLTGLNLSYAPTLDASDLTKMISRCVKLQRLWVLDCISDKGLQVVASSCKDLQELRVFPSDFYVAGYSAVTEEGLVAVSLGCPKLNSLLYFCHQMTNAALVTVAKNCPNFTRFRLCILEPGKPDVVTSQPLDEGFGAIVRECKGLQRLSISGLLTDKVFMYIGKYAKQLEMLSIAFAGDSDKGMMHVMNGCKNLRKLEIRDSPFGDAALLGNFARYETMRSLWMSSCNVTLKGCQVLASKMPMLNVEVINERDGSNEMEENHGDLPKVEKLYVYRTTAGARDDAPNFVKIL
# T1 sequence (Q9WTX5 whole entry partner): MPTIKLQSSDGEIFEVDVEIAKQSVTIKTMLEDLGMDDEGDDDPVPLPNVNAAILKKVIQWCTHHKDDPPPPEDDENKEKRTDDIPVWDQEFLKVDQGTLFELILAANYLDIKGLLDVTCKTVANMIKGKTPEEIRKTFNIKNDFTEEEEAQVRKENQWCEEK
# From the text: (§1) FIGS. 1A-1D depict non-limiting exemplary embodiments and data showing the plant hormone auxin allows private-channel mammalian cell-cell communication. […] Middle: Engineered cells that can send and receive the signal simultaneously can respond to their own population size. Right: coupling the sending-receiving function with cell survival in a negative feedback can enable population control. (FIG. 1B) Auxin Receiver cells constitutively express a fluorescent target fusion protein, mCherry-AID-BlastR, as well as the F-box protein osTIR1. […] The response of mCherry fluorescence to two different species of auxin (IAA and NAA) was measured after two days of treatment (dots). […] Cells were counted by flow cytometry (n=3, error bar=standard deviation). […]
# To establish and characterize auxin regulation of mammalian cell growth, auxin sensing was coupled to drug resistance and fluorescence. Specifically, blasticidin S deaminase (Blast R), whose protein product is necessary for survival in the presence of blasticidin, was fused to AID and mCherry domains, allowing auxin-dependent degradation and fluorescent readout of protein concentration, respectively. […]
# To fit the mCherry's response curve to auxin and population (FIG. 1C, FIGS. 3A and 3B; FIGS. 7A and 7B), it was assumed the log of fluorescence (F) follows an inverted Michaelis-Menten's equation as follow: […]
# parental cells = assay: Parental cells cultured with IAA and blasticidin (pilot); details: cultured in the presence of IAA and blasticidin
# Method: FIGS. 14A-14D depict non-limiting exemplary data showing simple negative feedback enables cell density-dependent killing. (FIGS. 14A-14B) Long-term culture traces under 50 μg/ml and 100 μg/ml blasticidin conditions. Experimental setups are the same as FIG. 11B. […] A cell line collected from the experiment described in (FIG. 14D) was cultured, in parallel with the parental line, with different IAA and blasticidin combinations for 4 days. Survival rates were normalized to the parental line, and each bar is from a triplet. […] Cells were seeded into a 24-well imaging plate with 50 μg/ml of blasticidin solely or with 100 μM IAA or IAM, and no cells survived the combined IAA and blasticidin treatment. Each trace reflects an average of 12 positions in a sample well.
# First, resistance mutations occurred in separately maintained, long-term cultures, and therefore could not spread from one culture to another. […] While sensing mutations are likely responsible at least in part for the mutant growth advantage, their specific effects in a parental background was not characterized. […] However, as described herein, a paradoxical circuit designs provide robust population control.
# [2] = test system: Receiver cell line (CHO-K1 cells); assay: Receiver cell survival with IAA and blasticidin; details: IAA added to media containing blasticidin; four days; dose-dependent
# From the text: as §1
# Flow cytometry by trypsinizing 0.25% trypsin-EDTA (GIBCO) for 1 min at room temperature. […] Cells were then filtered through a 40 μm cell strainer and analyzed by flow cytometry (MACSQuant VYB, Miltenyi or CytoFLEX, Beckman Coulter). […] All fluorescence data were acquired as the median value of the gated population. For counting cells, 1000 CountBright beads (Life Technologies) were spiked into the sample before filtering, gated out by their fluorescence in analysis and used to estimate cell number in each sample.
# mCherry-AID-Blast R [3] = target: T1, mCherry-AID-Blast R; assay: Conditioned media from Sender-Receivers applied to Receivers; details: 2 days conditioning, diluted into an equal volume of fresh media
# Method: FIGS. 2A-2E depict non-limiting exemplary embodiments and data showing Sender-Receiver cells produce and respond to auxin. […] (FIG. 2B) Stable expression of iaaH in Receiver cells allows them to produce auxin from precursors (blue square). (FIG. 2C) Conditioned media experiment (schematic). Fresh culture media with or without precursors was added to plated sender cells, collected, mixed at 1:1 ratio with standard fresh media, and then applied to receiver cells. (FIG. 2D) iaaH can produce IAA and NAA auxins from IAM and NAM precursors, respectively. Standard media, with or without precursors, was conditioned by Sender-Receivers or standard CHO-K1 cells for 48 hours and applied to Receiver cells for another two days. Receivers cultured with fresh media with or without auxins were also assayed as controls. Data are normalized to Receiver cell fluorescence treated with media conditioned by CHO-K1 cells. Error bars represent standard deviation of 3 replicates. (FIG. 2E) Auxin senders can generate an auxin gradient. Sender-Receivers (green) were seeded within a 7 mm×7 mm square at the edge of a 60 mm dish, and Receivers were plated everywhere else (no fluorescence or red). One day after plating, the media was replaced with fresh media containing low-melting-point agarose, with or without IAM (Methods). Plates were imaged after two additional days of culture. […]
# Sender-Receiver cells = assay: Quorum sensing of Sender-Receiver cells (reporter fluorescence versus population density); details: Sender-Receiver cells without PIN2, two days
# Method: FIGS. 3A-3D depict non-limiting exemplary embodiments and data showing Sender-Receiver cells sense their population density and regulate survival accordingly. (FIGS. 3A-3B) Sender-Receiver and Sender-Receiver-PIN2 cells perform quorum sensing. For both plots, cells were seeded at different densities and induction conditions, with either of the two auxins (saturating signaling) or their precursors (to allow quorum sensing). mCherry fluorescence was assayed after two days as a reporter of auxin sensing. Inset: Cells in B express the transporter PIN2, which actively exports auxin. Data were fitted onto an inverted Michaelis-Menten's function on log scale (see FIG. 7B for fitted parameters). (FIG. 3C) Sender-Receiver-PIN2 cells sense population size per unit volume. Cells were grown for two days at 6 different densities for each media volume, and cultured on a rocker for better mixing. (FIG. 3D) Sender-Receiver-PIN2 triggers cell death at high population density. […]
# It was next asked whether Sender-Receiver cells could sense their own population density by producing auxin at a rate proportional to population size and sensing auxin concentration in the local environment (quorum sensing, FIG. 1A, middle panel). The dependence of reporter expression on cell population density in the presence of concentrations of each precursor sufficient to generate saturating levels of auxin was analyzed. […]
# Sender-Receiver-PIN2 = assay: Density-dependent survival of Sender-Receiver-PIN2 cells in blasticidin; details: media with blasticidin, 4 days
# Method: FIGS. 3A-3D depict non-limiting exemplary embodiments and data showing Sender-Receiver cells sense their population density and regulate survival accordingly. (FIGS. 3A-3B) Sender-Receiver and Sender-Receiver-PIN2 cells perform quorum sensing. For both plots, cells were seeded at different densities and induction conditions, with either of the two auxins (saturating signaling) or their precursors (to allow quorum sensing). mCherry fluorescence was assayed after two days as a reporter of auxin sensing. Inset: Cells in B express the transporter PIN2, which actively exports auxin. Data were fitted onto an inverted Michaelis-Menten's function on log scale (see FIG. 7B for fitted parameters). (FIG. 3C) Sender-Receiver-PIN2 cells sense population size per unit volume. Cells were grown for two days at 6 different densities for each media volume, and cultured on a rocker for better mixing. (FIG. 3D) Sender-Receiver-PIN2 triggers cell death at high population density. Cells were seeded at different confluence levels, grown for four days in media with 50 μg/ml blasticidin and IAM, IAA, or no auxin (Error bars are standard deviation, n=3)).
# Linking quorum sensing to cell survival could enable cell population control (FIG. 1A, right). […]
# Paradaux cells = assay: Paradaux cell survival versus auxin with AP1903 and/or blasticidin, and model parameter fitting
# From the text: FIGS. 4A-4G depict non-limiting exemplary embodiments and data showing paradoxical architecture reduces susceptibility to cheater mutations. (FIG. 4A) In the paradoxical architecture, the same signal inhibits growth (red pathway) and death (green pathway). This can produce a window of auxin concentrations leading to positive net growth (light blue region). Without mutation, the paradoxical and negative feedback circuits operate similarly around a stable equilibrium point of large population size (solid dots in the left panels). Mutations that eliminate sensing make both death and growth independent of auxin concentration (right panels), which selects against mutations in the paradoxical circuit due to negative net growth (FIG. 4B) In the paradoxical circuit implementation, auxin regulates growth through Blast^R (upper path), and also regulates apoptosis via iCasp9 (lower path), each with distinct fluorescent protein readouts and a small molecule (blasticidin and AP1903) as a control switch. (FIG. 4C) The full paradoxical circuit can be encoded as a single open reading frame, with distinct proteins separated by T2A peptides (grey squares). (FIG. 4D) Paradaux cells respond to auxin in a biphasic manner. Cells were seeded at about 1/8 confluence (grey dashed line) and pretreated with NAA for one day, then treated with combinations of NAA, blasticidin (20 μg/ml) and AP1903 (50 nM) for another 3 days, and imaged. Pink, green, and blue dots show the mean and standard deviation of three replicates in the presence of AP1903, blasticidin, or both, respectively. […] Blue dashed lines indicate predictions for the fully operational circuit based on the green and red curves. Dotted blue line is the model prediction when the synergy term is included. (FIG. 4E) Different classes of behavior can occur in different parameter regimes. Using the model auxin-dependent growth was simulated in different parameter regimes and identified five distinct regimes (indicated schematically as insets). Using this classification, growth curves were numerically analyzed and sorted for each concentration of blasticidin and AP1903 (central plot). The blue dot indicates the blasticidin and AP1903 concentrations used in the time-lapse movie analysis. The grey region indicates curves that could not be classified into one of these categories (0.68% of total, see FIG. 9F and Supplementary text). (FIG. 4F). For each expression level, the percent of blasticidin-AP1903 concentrations that generate paradoxical behavior was analyzed, similar to FIG. 4E. Optimizing the expression and ratio of Blast R and iCasp9 can widen the paradoxical regime. (FIG. 4G) Dynamic simulations show the Paradoxical Control circuit provides evolutionary robustness. For the negative feedback system, tic and βC and βsyn are set to zero. Mutated strains were simulated with auxin (A) fixed to zero, representing sensing deficient mutations. On day 25, 50, 75 and 100, mutant cells (1% of the population cap) were introduced into the simulated system to test robustness to mutations. These mutants take over in the negative feedback circuit (top) but not the paradoxical circuit (bottom). Dashed line indicates carrying capacity.
# To encode the Paradaux circuit, a single multi-protein construct expressing osTIR1, the auxin-regulated iCasp9 system, and the auxin-regulated Blast R construct described above was designed (FIG. 4C). To eliminate one potential mechanism for evolutionary escape, Blast^R was positioned at the C-terminal end of the construct, so that premature stop codon mutations would deactivate Blast®, decreasing survival. The construct was integrated to create stable monoclonal CHO-K1 cell lines for further analysis. […]
# [4] = fitted value, major Paradaux line (1)
# [5] = fitted value, second Paradaux line (2)
compound,measurement,setting,value
"O=C(O)Cc1c[nH]c2ccccc12 [IAA, indole-3-acetic acid]",EC50,mCherry-AID-Blast R [1],110 nM
same,Time to death of parental cells,parental cells,≤ 3 days
same,Effect on cell survival,[2],inhibit cell survival
"NC(=O)Cc1c[nH]c2ccccc12 [IAM, indole-3-acetamide]",Reduction of mCherry-AID-BlastR in Receivers by media conditioned by Sender-Receivers with precursor,mCherry-AID-Blast R [3],comparable to those generated by saturating concentrations of IAA
same,Reporter fluorescence versus population density with precursor,Sender-Receiver cells,"strong, but density-independent, decrease in fluorescence"
same,Cell numbers at high seeding density versus no IAM or IAA,Sender-Receiver-PIN2,reduced cell numbers
"O=C(O)Cc1cccc2ccccc12 [NAA, 1-napthalenatic acid]",EC50,mCherry-AID-Blast R [1],760 nM
"NC(=O)Cc1cccc2ccccc12 [NAM, 1-naphthaleneacetamide]",Reduction of mCherry-AID-BlastR in Receivers by media conditioned by Sender-Receivers with precursor,mCherry-AID-Blast R [3],diminished response compared to NAA
same,Reporter fluorescence versus population density with precursor,Sender-Receiver cells,decreased in response to increasing population density
CN(CC[C@H](N)CC(=O)N[C@H]1C=C[C@H](n2ccc(N)nc2=O)O[C@@H]1C(=O)O)C(=N)N [blasticidin],"n1, cooperativity of the blasticidin regulation",Paradaux cells; [4],2.26(1); DL
same,"βB, maximum net growth reduction by blasticidin",Paradaux cells; [4],0.0874(1); hr^−1
same,"κB, effective strength of blasticidin",Paradaux cells; [4],0.045(1); (μg/ml)^−1
same,"n1, cooperativity of the blasticidin regulation",Paradaux cells; [5],2.28(2) DL
same,"βB, maximum net growth reduction by blasticidin",Paradaux cells; [5],0.147(2) hr^−1
same,"κB, effective strength of blasticidin",Paradaux cells; [5],0.069(2) (μg/ml)^−1
auxin,Survival of Paradaux cells as a function of auxin,Paradaux cells; both blasticidin and AP1903,biphasic survival curve
same,"κA, effective strength of auxin",Paradaux cells; fitted value,1.316 µM⁻¹
same,Survival of Paradaux cells as a function of auxin,Paradaux cells; in the presence of AP1903,increased monotonically
same,Survival of Paradaux cells as a function of auxin,Paradaux cells; in the presence of blasticidin,decreased
